From PMC5150697 (ACS Medicinal Chemistry Letters, 2016)

Key:
[1] = test system: ABCA1 induction in human whole blood; assay: Human whole blood assay; assay type: cell-based; conditions: for improvement in hWBA potency compared to 5: ratio of hWBA EC50 values vs 5
[2] = test system: human α1 AGP; assay: Equilibrium dialysis with human α1 AGP; assay type: in vitro ADME; conditions: 1 µM, 0.1% AGP, pH 7.4, 37 °C, 4 h, n = 3
[3] = target: human serum albumin (HSA) (Homo sapiens, UniProt P02768); assay: Equilibrium dialysis with HSA; assay type: in vitro ADME; conditions: 1 µM, 4% HSA, pH 7.4, 37 °C, 4 h, n = 3
[4] = after multiple days of dosing, limited therapeutic window; cited from earlier work

Chain of human serum albumin (HSA) (P02768 25-609): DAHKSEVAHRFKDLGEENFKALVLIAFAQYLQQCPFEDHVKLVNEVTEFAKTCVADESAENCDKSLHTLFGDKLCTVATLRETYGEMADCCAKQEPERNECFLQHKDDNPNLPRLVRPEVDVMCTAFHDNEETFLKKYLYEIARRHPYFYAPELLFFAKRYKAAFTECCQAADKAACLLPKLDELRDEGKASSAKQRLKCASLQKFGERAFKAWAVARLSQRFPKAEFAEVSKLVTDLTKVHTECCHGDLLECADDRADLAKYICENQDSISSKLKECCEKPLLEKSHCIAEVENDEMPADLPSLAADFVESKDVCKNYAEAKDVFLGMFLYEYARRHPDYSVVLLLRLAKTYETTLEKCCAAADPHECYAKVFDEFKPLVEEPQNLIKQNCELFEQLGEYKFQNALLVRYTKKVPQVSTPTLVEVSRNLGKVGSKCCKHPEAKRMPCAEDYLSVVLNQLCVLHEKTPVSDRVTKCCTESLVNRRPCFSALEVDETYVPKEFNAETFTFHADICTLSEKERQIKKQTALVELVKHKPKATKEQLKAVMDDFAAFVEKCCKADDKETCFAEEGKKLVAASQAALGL

human α1 AGP (% bound) [2]	Compound	improvement in hWBA potency compared to 5 [1]	other results
99.6 ± 0.2%	CC(C)(O)c1cn(-c2ccc(-c3cccc(S(C)(=O)=O)c3)cc2)c(C(C)(C)c2c(Cl)cccc2Cl)n1 [Example 6]	3 fold	
99.9 ± 0.0%	CC(C)(O)c1cn(-c2ccc(-c3cccc(S(C)(=O)=O)c3)cc2)c(C(C)(C)c2ccccc2Cl)n1 [Example 5]		HSA (% bound) [3]: 97.2 ± 0.3%
	CC(C)(O)c1cn(-c2ccc(-c3cc(F)c(CO)c(S(C)(=O)=O)c3)cc2F)c(C(C)(C)c2c(Cl)cccc2Cl)n1 [Example 15]		TGs and LDL-C in human trials [4]: elevated
	CC(C)(O)c1cn(-c2ccc(-c3cc(F)c(CO)c(S(C)(=O)=O)c3)cc2)c(C(C)(C)c2c(Cl)cccc2Cl)n1 [Example 12]		improvement in hWBA potency ([1]; 2,6-dichloro analogue vs 10): 3–4 fold
	CC(C)(O)c1cn(-c2ccc(-c3cc(F)c(CO)c(S(C)(=O)=O)c3)cc2)c(C(C)(C)c2ccccc2Cl)n1 [Example 10]	20 fold	
